# Results as given in patent publication US8835124B2, “Method for treating cancer with agents that bind phosphorylated CDC27” (The Nemours Foundation, priority 2011, dated 2014).
# What was measured:
# NT2 and MDCK cells = assay: Cell cycle progression after release from thymidine/nocodazole block; type: cell-based; details: different concentrations of curcumin
# Protocol: (§1) For analysis of cell cycle profiles after mitotic block, cells were synchronized with 2 mM thymidine for 24 hours. The block was released for 3 hours and cells were arrested in prometaphase with 100 nM nocodazole for 12 hours. For G1/S arrest, cells were synchronized for 18 hours with 2 mM thymidine, released for 9 hours, followed by a second thymidine arrest for 18 hours. The block was then released in the presence of DMSO or curcumin as indicated and the cells were processed as described above.
# NT2 and MDCK cells were arrested with thymidine/nocodazole treatment. […] DNA contents were analyzed for cell cycle progression. The data shown in FIG. 7 are expressed as mean±SEM of three independent experiments.
# [1] = tested on: Cdc27, cyclin B1, securin, cyclin D1, APC2, p55Cdc20; assay: Immunoblotting of DAOY cells released from mitotic block; type: cell-based, human
# Protocol: Cell lysates were prepared in a buffer containing 20 mM Tris (pH 7.5), 150 mM NaCl, 1 mM EDTA, 1 mM EGTA, 0.1% Triton X-100, 2.5 mM sodium pyrophosphate, 1 mM β-glycerol phosphate, 1 mM sodium vanadate, 1 mM phenylmethylsulfonyl fluoride and 5 μg/ml of antipapain, leupeptin and pepstatin (protease inhibitor cocktail). Protein concentrations were determined by the Dc protein assay (Bio-Rad, Hercules, Calif.). Equal amounts of protein were resolved by SDS-PAGE and transferred to nitrocellulose. The membranes were blocked in 5% non-fat milk in Tris-buffered saline with 0.1% […] (TBST). Primary antibodies diluted in 5% bovine serum albumin/TBST were incubated overnight at 4° C. and HRP-conjugated secondary antibodies in 5% non-fat milk/TBST for 2 hours at room temperature. Protein bands were visualized by Enhanced Chemiluminescence Plus (GE Healthcare, Piscataway, N.J.).
# [2] = tested on: DAOY medulloblastoma cells; assay: Cell cycle analysis by flow cytometry after release from thymidine/nocodazole mitotic block; type: cell-based, human; details: for cells remained in G2/M: 10 μM curcumin; for G0/G1 / G2/M / S / Sub G0/G1: DAOY released from thymidine/nocodazole block
# Protocol: DNA was stained with 100 μg/ml propidium iodide (PI) in hypotonic citrate buffer with 20 μg/ml ribonuclease A. Stained nuclei were analyzed for DNA-PI fluorescence using an Accuri C6 flow cytometer (Accuri Cytometers Inc., Ann Arbor, Mich.). Resulting DNA distributions for sub G0/G1, G0/G1, S and G2/M phase of the cell cycle were analyzed with CFlow plus software (Accuri Cytometers Inc).
# as §1
# For analysis of cell cycle profiles after mitotic block, cells were synchronized with 2 mM thymidine for 24 hours. The block was released for 3 hours and cells were arrested in prometaphase with 100 nM nocodazole for 12 hours. For G1/S arrest, cells were synchronized for 18 hours with 2 mM thymidine, released for 9 hours, followed by a second thymidine arrest for 18 hours. The block was then released in the presence of DMSO or curcumin as indicated and the cells were processed as described above. […] The data from these cell cycle studies are the mean±SEM of three independent experiments. […]
# Cdc27 [3] = molecular target: T1, Cdc27 (Mus musculus, UniProt A2A6Q5); assay: Cdc27 immunoblot of medulloblastoma samples from treated Smo/Smo mice; type: in vivo; details: curcumin-treated vs corn oil control mice
# T1 construct: from tissue; host or cells: medulloblastoma tumours of Smo/Smo mice
# Protocol: Tumors of control and curcumin-treated mice were harvested exactly as described (Lee et al., 2011, BMC Cancer 11:144). Animal experiments were performed according to the NIH Guide for the Care and Use of Experimental Animals and approved by our Institutional Animal Care and Use Committee.
# Cdc27 levels in the Smo/Smo mouse tumors were determined by immunoblot of Cdc27. Tubulin is shown for equal loading. The Cdc27 levels were reduced (FIG. 4) when compared with control mice.
# medulloblastoma cells = details: cited from earlier work
# Cdc27 [4] = molecular target: T2, Cdc27 (Homo sapiens, UniProt P30260); assay: Cdc27 immunoblot, molecular weight shift (crosslinking) in treated DAOY cells; type: cell-based
# T2 construct: endogenous in cells; host or cells: DAOY medulloblastoma cells
# T2 sequence (P30260 1-830 isoform P30260-2): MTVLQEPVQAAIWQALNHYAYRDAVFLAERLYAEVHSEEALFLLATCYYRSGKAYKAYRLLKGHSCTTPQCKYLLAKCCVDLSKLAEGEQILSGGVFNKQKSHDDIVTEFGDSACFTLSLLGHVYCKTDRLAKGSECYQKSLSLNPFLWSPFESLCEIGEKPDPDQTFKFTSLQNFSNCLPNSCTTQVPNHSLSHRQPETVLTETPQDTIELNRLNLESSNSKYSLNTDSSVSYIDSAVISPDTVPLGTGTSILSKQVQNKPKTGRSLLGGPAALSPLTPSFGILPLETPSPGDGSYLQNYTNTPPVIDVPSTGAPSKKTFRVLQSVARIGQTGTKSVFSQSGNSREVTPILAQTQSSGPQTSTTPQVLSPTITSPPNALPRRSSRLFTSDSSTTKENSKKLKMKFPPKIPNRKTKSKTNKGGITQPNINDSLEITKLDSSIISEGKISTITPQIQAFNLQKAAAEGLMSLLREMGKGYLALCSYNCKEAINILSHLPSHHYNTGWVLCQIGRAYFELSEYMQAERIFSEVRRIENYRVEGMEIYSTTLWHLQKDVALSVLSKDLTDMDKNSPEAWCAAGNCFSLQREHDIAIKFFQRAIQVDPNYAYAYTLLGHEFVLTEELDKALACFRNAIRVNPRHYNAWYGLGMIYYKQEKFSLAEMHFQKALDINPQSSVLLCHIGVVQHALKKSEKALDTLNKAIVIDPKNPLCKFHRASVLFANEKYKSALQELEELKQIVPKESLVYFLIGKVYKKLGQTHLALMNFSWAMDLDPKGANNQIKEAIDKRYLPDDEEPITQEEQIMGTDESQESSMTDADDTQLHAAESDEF
# Protocol: Cell lysates were prepared in a buffer containing 20 mM Iris (pH 7.5), 150 mM NaCl, 1 mM EDTA, 1 mM EGTA, 0.1% Triton X-100, 2.5 mM sodium pyrophosphate, 1 mM β-glycerol phosphate, 1 mM sodium vanadate, 1 mM phenylmethylsulfonyl fluoride and 5 μg/ml of antipapain, leupeptin and pepstatin (protease inhibitor cocktail). Protein concentrations were determined by the Dc protein assay (Bio-Rad, Hercules, Calif.). Equal amounts of protein were resolved by SDS-PAGE and transferred to nitrocellulose. The membranes were blocked in 5% non-fat milk in Tris-buffered saline with 0.1% Tween-20 (TBST). Primary antibodies diluted in 5% bovine serum albumin/TBST were incubated overnight at 4° C. and HRP-conjugated secondary antibodies in 5% non-fat milk/TBST for 2 hours at room temperature. Protein bands were visualized by Enhanced Chemiluminescence Plus (GE Healthcare, Piscataway, N.J.).
# The cell lysates were separated by SDS-PAGE and immunoblotted for Cdc27. […] Data represent mean±SEM of three independent experiments.
# T1 sequence (A2A6Q5 whole entry): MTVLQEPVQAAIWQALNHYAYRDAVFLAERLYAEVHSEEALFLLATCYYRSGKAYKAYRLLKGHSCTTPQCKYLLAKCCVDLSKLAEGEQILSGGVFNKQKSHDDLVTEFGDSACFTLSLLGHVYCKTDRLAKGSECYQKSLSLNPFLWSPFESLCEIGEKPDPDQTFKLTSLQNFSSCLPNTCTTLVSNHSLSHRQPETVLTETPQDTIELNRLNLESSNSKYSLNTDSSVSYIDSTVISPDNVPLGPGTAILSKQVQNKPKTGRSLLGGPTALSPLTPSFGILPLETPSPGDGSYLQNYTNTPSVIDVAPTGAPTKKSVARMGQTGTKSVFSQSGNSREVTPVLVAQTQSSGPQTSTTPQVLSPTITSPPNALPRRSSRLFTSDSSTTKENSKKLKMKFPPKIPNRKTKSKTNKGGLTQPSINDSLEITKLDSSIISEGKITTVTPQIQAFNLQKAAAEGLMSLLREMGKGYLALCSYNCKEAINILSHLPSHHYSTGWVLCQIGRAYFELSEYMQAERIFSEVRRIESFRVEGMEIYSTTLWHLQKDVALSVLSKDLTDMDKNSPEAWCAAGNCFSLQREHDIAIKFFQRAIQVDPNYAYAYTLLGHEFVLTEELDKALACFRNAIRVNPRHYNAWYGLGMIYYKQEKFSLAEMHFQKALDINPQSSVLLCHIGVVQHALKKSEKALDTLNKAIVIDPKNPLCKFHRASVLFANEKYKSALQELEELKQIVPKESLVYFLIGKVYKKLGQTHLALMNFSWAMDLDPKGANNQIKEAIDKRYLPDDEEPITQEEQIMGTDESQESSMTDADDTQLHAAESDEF
compound,measurement,setting,value
"COc1cc(/C=C/C(=O)CC(=O)/C=C/c2ccc(O)c(OC)c2)ccc1O [Curcumin, (E,E)-1,7-bis(4-hydroxy-3-methoxyphenyl)-1,6-heptadiene-3,5-dion]",mitotic progression after release from mitotic block,NT2 and MDCK cells,selectively blocks mitotic progression in different cell lines with phosphorylated APC3/Cdc27
same,dephosphorylation of Cdc27 over time after release of the mitotic block,[1]; 20 and 40 μM curcumin vs DMSO,not observed
same,decreases in the cyclin B1 and securin levels after release of the mitotic block,[1]; 20 and 40 μM curcumin vs control,not found
same,"levels of APC2, p55Cdc20 or cyclin D1",[1]; control vs curcumin-treated cells,no significant differences
same,cells remained in G2/M,[2]; six hours after release from mitotic block,47.7%
same,cells remained in G2/M,[2]; two hours after release from mitotic block,91.5%
same,cells found in G2/M,"[2]; 20 μM curcumin, 10 hours of release from mitotic block",69.8%
same,cells in the sub-G0/G1 fraction,"[2]; 20 μM curcumin, after release from mitotic block",a significant amount of cells was in the sub-G0/G1 fraction
same,G0/G1,"[2]; 10 μM Curcumin, 0 Hr",7.38 ± 3.12%
same,G2/M,"[2]; 10 μM Curcumin, 0 Hr",70.15 ± 0.75%
same,S,"[2]; 10 μM Curcumin, 0 Hr",17.68 ± 4.78%
same,Sub G0/G1,"[2]; 10 μM Curcumin, 0 Hr",4.80 ± 2.40%
same,G0/G1,"[2]; 10 μM Curcumin, 2 Hr",16.87 ± 4.87%
same,G2/M,"[2]; 10 μM Curcumin, 2 Hr",64.16 ± 7.74%
same,S,"[2]; 10 μM Curcumin, 2 Hr",10.76 ± 0.04%
same,Sub G0/G1,"[2]; 10 μM Curcumin, 2 Hr",8.21 ± 2.91%
same,G0/G1,"[2]; 10 μM Curcumin, 4 Hr",35.54 ± 1.94%
same,G2/M,"[2]; 10 μM Curcumin, 4 Hr",46.47 ± 0.17%
same,S,"[2]; 10 μM Curcumin, 4 Hr",9.47 ± 2.03%
same,Sub G0/G1,"[2]; 10 μM Curcumin, 4 Hr",8.57 ± 0.13%
same,G0/G1,"[2]; 10 μM Curcumin, 6 Hr",43.93 ± 3.13%
same,G2/M,"[2]; 10 μM Curcumin, 6 Hr",33.43 ± 5.27%
same,S,"[2]; 10 μM Curcumin, 6 Hr",12.07 ± 0.53%
same,Sub G0/G1,"[2]; 10 μM Curcumin, 6 Hr",10.57 ± 2.67%
same,G0/G1,"[2]; 10 μM Curcumin, 8 Hr",47.60 ± 4.00%
same,G2/M,"[2]; 10 μM Curcumin, 8 Hr",26.86 ± 6.24%
same,S,"[2]; 10 μM Curcumin, 8 Hr",15.54 ± 0.56%
same,Sub G0/G1,"[2]; 10 μM Curcumin, 8 Hr",9.99 ± 2.79%
same,G0/G1,"[2]; 10 μM Curcumin, 10 Hr",48.68 ± 8.18%
same,G2/M,"[2]; 10 μM Curcumin, 10 Hr",22.65 ± 11.35%
same,S,"[2]; 10 μM Curcumin, 10 Hr",19.88 ± 0.32%
same,Sub G0/G1,"[2]; 10 μM Curcumin, 10 Hr",8.85 ± 3.45%
same,G0/G1,"[2]; 20 μM Curcumin, 0 Hr",7.38 ± 3.12%
same,G2/M,"[2]; 20 μM Curcumin, 0 Hr",70.15 ± 0.75%
same,S,"[2]; 20 μM Curcumin, 0 Hr",17.68 ± 4.76%
same,Sub G0/G1,"[2]; 20 μM Curcumin, 0 Hr",4.80 ± 2.40%
same,G0/G1,"[2]; 20 μM Curcumin, 2 Hr",11.51 ± 2.81%
same,G2/M,"[2]; 20 μM Curcumin, 2 Hr",67.21 ± 5.39%
same,S,"[2]; 20 μM Curcumin, 2 Hr",13.86 ± 0.34%
same,Sub G0/G1,"[2]; 20 μM Curcumin, 2 Hr",7.42 ± 2.92%
same,G0/G1,"[2]; 20 μM Curcumin, 4 Hr",16.77 ± 1.63%
same,G2/M,"[2]; 20 μM Curcumin, 4 Hr",65.00 ± 1.30%
same,S,"[2]; 20 μM Curcumin, 4 Hr",10.77 ± 1.57%
same,Sub G0/G1,"[2]; 20 μM Curcumin, 4 Hr",7.46 ± 1.36%
same,G0/G1,"[2]; 20 μM Curcumin, 6 Hr",22.09 ± 0.81%
same,G2/M,"[2]; 20 μM Curcumin, 6 Hr",52.27 ± 5.63%
same,S,"[2]; 20 μM Curcumin, 6 Hr",14.02 ± 2.02%
same,Sub G0/G1,"[2]; 20 μM Curcumin, 6 Hr",11.67 ± 4.37%
same,G0/G1,"[2]; 20 μM Curcumin, 8 Hr",24.20 ± 0.30%
same,G2/M,"[2]; 20 μM Curcumin, 8 Hr",51.55 ± 9.55%
same,S,"[2]; 20 μM Curcumin, 8 Hr",13.45 ± 3.65%
same,Sub G0/G1,"[2]; 20 μM Curcumin, 8 Hr",10.85 ± 5.55%
same,G0/G1,"[2]; 20 μM Curcumin, 10 Hr",25.15 ± 0.85%
same,G2/M,"[2]; 20 μM Curcumin, 10 Hr",48.95 ± 10.95%
same,S,"[2]; 20 μM Curcumin, 10 Hr",14.22 ± 4.02%
same,Sub G0/G1,"[2]; 20 μM Curcumin, 10 Hr",11.67 ± 6.07%
same,Cdc27 levels in Smo/Smo mouse tumors,Cdc27 [3],reduced
same,cell cycle arrest and apoptosis,medulloblastoma cells,induces G2/M arrest and apoptosis
same,induction of high molecular weight bands of Cdc27 (crosslinking),"Cdc27 [4]; DAOY, 0, 3, 6, 9 or 24 hours",induces the formation of Cdc27 dimers
same,high molecular weight (MW) band of Cdc27,"Cdc27 [4]; curcumin-treated DAOY cells, immunoblot",approximately double the MW of Cdc27
